The test system of one assay is CRM1 substrate RanBP1. Nature of the assay: Nuclear export block (RanBP1 localization, recovery after compound removal). The following applies: recovery of cytoplasmic RanBP1 localization after compound washout (typically 1 h exposure; 8, 24 or 48 h recovery). It counts as cell-based. As for the experimental part: The nuclear export blocking capability of compounds of this invention was evaluated as follows:
1-5×10^4 cells were seeded onto 12 mm glass coverslips or wells of a chamber slide (for example, Lab-Tek #177445). Cells were grown overnight at 37° C. to allow cells to attach to the surface. Media was removed and replaced with media containing the desired test compound and incubated the required time period (typically 1 h). For recovery experiments, cells were washed with PBS or media and incubated in media without test compound for the desired recovery periods (typically 8, 24, or 48 h). The media was removed and coverslips/wells were washed with PBS pH 7.4 for 1 minute. Coverslips or slides were fixed with 3.7% formaldehyde in PBS for 20 minutes at room temperature, washed three times in PBS, and stained for the CRM1 substrate RanBP1.
Coverslips or chamber slides were permeabilized and blocked in 10% donkey serum, 0.1% Triton X-100 in PBS for 30 minutes at room temperature. Primary antibodies were diluted in PBS and incubated for 1 hour at room temperature: goat-anti-RanBP1 (Santa Cruz Biotechnology, sc-1160; 1:50 dilution) and mouse-anti-tubulin (Sigma, T9026; 1:400). Cells were washed 3×5 minutes in PBS. Secondary antibodies donkey-anti-goat Cy3 (705-165-147, Jackson Immunoresearch) and donkey anti-mouse FITC (715-095-150, Jackson Immunoresearch) were diluted 1:200 in PBS and incubated for 1 hour at room temperature. Secondary antibody was removed and cells were stained with a nuclear dye such as DAPI (Sigma, D8417; 2.5 ug/mL in PBS) or Hoechst 33342 (Molecular Probes, H3570; 100 ng/mL in PBS) for 5 minutes at room temperature. Cells were washed 3×5 minutes in PBS and coverslips were mounted with FluorSave (EMD Biosciences, 80058-108). Nuclear (N) or cytoplasmic (C) localization of RanBP1 was examined using a 40× objective on a Zeiss Axiovert 200 inverted epiflourescence microscope. Nuclear localization (N>C) was confirmed after the initial drugging period.

The next assay has as its system HCT-116. The assay can be described thus: Inhibition of tumor cell proliferation, HCT-116. To be noted: read-out: Cancer Cell Line (IC50, nM) HCT-116. Format: cell-based, human. The protocol: (§1) The biological activity of compounds of this invention was evaluated by measuring their inhibitory effect on the proliferation of various tumor cell lines. HCT-116 is a human colon cancer cell line. LNCap is a human prostate cancer cell line. SiHa is an HPV-16 positive human cervical cancer line.

The test system of another assay is LNCap. The assay can be described thus: Inhibition of tumor cell proliferation, LNCap. To be noted: read-out: Cancer Cell Line (IC50, nM) LNCap. Format: cell-based, human. The protocol: as §1
A further assay relates to SiHa. The assay can be described thus: Inhibition of tumor cell proliferation, SiHa. Format: cell-based, human. To be noted: read-out: Cancer Cell Line (IC50, nM) SiHa. The protocol:
as §1

The record followed here is patent US7795457B2, “Carbamate compounds” (Kosan Biosciences Incorporated, priority 2007, dated 2010).

One may read the IC50 as the concentration that gives 50% inhibition.

Like-named read-outs stand apart in the source and are kept apart here.

In the case of `CNC(=O)OC/C=C(\C)C[C@H](C)[C@@H](O)[C@H](C)C(=O)[C@H](C)/C=C(C)/C=C/C[C@@H](C)/C=C(C)\C=C\[C@H]1CC=CC(=O)O1` [Compound A-2], the “Nuclear Export Block” value with CRM1 substrate RanBP1 was “Slow recovery”. In addition, the IC50 in the assay with HCT-116 (Homo sapiens, HCT-116, 1 h) is 3.7 nM; in the assay on HCT-116 (Homo sapiens, HCT-116, 72 h) it was 0.7 nM; with LNCap (Homo sapiens, LNCaP, 1 h), 2.7 nM; in the assay on LNCap (Homo sapiens, LNCaP, 72 h) it was 0.4 nM; in the assay with SiHa (Homo sapiens, SiHa, 1 h), 1.2 nM; with SiHa (Homo sapiens, SiHa, 72 h) it was 0.4 nM.

Consider `CC(C=CC1CC=CC(=O)O1)=CC(C)CC=CC(C)=CC(C)C(=O)C(C)C(O)C(C)CC(C)=CCOC(=O)NCCN1CCCC1` (stereo not drawn) [Compound A-5], for which the IC50 with HCT-116 (exposure time to compound 1 h) worked out at 2.2 nM; with HCT-116 (exposure time to compound 72 h), 1.6 nM; with LNCap (exposure time to compound 1 h) it was 1.7 nM; with LNCap (exposure time to compound 72 h), 0.5 nM; in the assay on SiHa (exposure time to compound 1 h), 2.1 nM.

On to `CC(C=CC1CC=CC(=O)O1)=CC(C)CC=CC(C)=CC(C)C(=O)C(C)C(O)C(C)CC(C)=CCOC(=O)NCCc1cccnc1` (stereo not drawn) [Compound A-6], for which the “Nuclear Export Block” value in the assay with CRM1 substrate RanBP1 is “Slow recovery”. Further, the half-maximal inhibitory concentration (IC50) came out at 2.6 nM in the assay with HCT-116 (exposure time to compound 1 h); 0.8 nM with HCT-116 (exposure time to compound 72 h); 2.8 nM with LNCap (exposure time to compound 1 h); 0.4 nM with LNCap (exposure time to compound 72 h); 2.1 nM in the assay with SiHa (exposure time to compound 1 h).

`CC(C=CC1CC=CC(=O)O1)=CC(C)CC=CC(C)=CC(C)C(=O)C(C)C(O)C(C)CC(C)=CCOC(=O)NCCN1CCOCC1` (stereo not drawn) [Compound A-7]: the 50% inhibitory concentration (IC50) in the assay with HCT-116 (exposure time to compound 1 h) was 1.8 nM; in the assay on HCT-116 (exposure time to compound 72 h), 0.4 nM; in the assay with LNCap (exposure time to compound 1 h), 1.7 nM; in the assay with LNCap (exposure time to compound 72 h), 0.4 nM; with SiHa (exposure time to compound 1 h) it was 0.5 nM.

`CCN(CC)CCNC(=O)OCC=C(C)CC(C)C(O)C(C)C(=O)C(C)C=C(C)C=CCC(C)C=C(C)C=CC1CC=CC(=O)O1` (stereo not drawn) [Compound A-8]: the IC50 was determined as 2.6 nM in the assay with HCT-116 (exposure time to compound 1 h); 0.8 nM with HCT-116 (exposure time to compound 72 h); 1.3 nM with LNCap (exposure time to compound 1 h); 0.4 nM in the assay on LNCap (exposure time to compound 72 h); 0.5 nM in the assay on SiHa (exposure time to compound 1 h).

On to `CC(C=CC1CC=CC(=O)O1)=CC(C)CC=CC(C)=CC(C)C(=O)C(C)C(O)C(C)CC(C)=CCOC(=O)NCCc1ccc(F)cc1` (stereo not drawn) [Compound A-9], for which the concentration for half-maximal inhibition (IC50) with HCT-116 (exposure time to compound 1 h) was found to be 13.8 nM; with SiHa (exposure time to compound 1 h) it was 8.2 nM.

Turning to `COCCNC(=O)OCC=C(C)CC(C)C(O)C(C)C(=O)C(C)C=C(C)C=CCC(C)C=C(C)C=CC1CC=CC(=O)O1` (stereo not drawn) [Compound A-10], the IC50 was 3.2 nM with HCT-116 (exposure time to compound 1 h) and 2.5 nM with SiHa (exposure time to compound 1 h).

For `CC(C=CC1CC=CC(=O)O1)=CC(C)CC=CC(C)=CC(C)C(=O)C(C)C(O)C(C)CC(C)=CCOC(=O)NCCc1c(C)noc1C` (stereo not drawn) [Compound A-11], the IC50 with HCT-116 (exposure time to compound 1 h) worked out at 4.2 nM; in the assay with SiHa (exposure time to compound 1 h), 3.1 nM.

For the compound `CC(C=CC1CC=CC(=O)O1)=CC(C)CC=CC(C)=CC(C)C(=O)C(C)C(O)C(C)CC(C)=CCOC(=O)NCc1ccc(F)cc1` (stereo not drawn) [Compound A-12], the IC50 in the assay with HCT-116 (exposure time to compound 1 h) worked out at 13.9 nM; in the assay on SiHa (exposure time to compound 1 h), 5.8 nM.

In the case of `CC(C=CC1CC=CC(=O)O1)=CC(C)CC=CC(C)=CC(C)C(=O)C(C)C(O)C(C)CC(C)=CCOC(=O)NCCN1CCCC1=O` (stereo not drawn) [Compound A-13], the IC50 with HCT-116 (exposure time to compound 1 h) is 2.9 nM; in the assay on SiHa (exposure time to compound 1 h), 3.4 nM.

As to `CC(C=CC1CC=CC(=O)O1)=CC(C)CC=CC(C)=CC(C)C(=O)C(C)C(O)C(C)CC(C)=CCOC(=O)NCCn1ccnc1` (stereo not drawn) [Compound A-14], the values for the IC50 in the assay on HCT-116 (exposure time to compound 1 h) and in the assay on SiHa (exposure time to compound 1 h) were 2.9 nM and 3.8 nM, respectively.

Consider `CC(=C/[C@H](C)C/C=C/C(C)=C/[C@@H](C)C(=O)[C@@H](C)[C@H](O)[C@@H](C)C/C(C)=C/COC(=O)NCc1cc(C)on1)/C=C/[C@H]1CC=CC(=O)O1` [Compound A-15], for which the IC50 stood at 2.8 nM in the assay on HCT-116 (Homo sapiens, HCT-116, 1 h) and 3.6 nM with SiHa (Homo sapiens, SiHa, 1 h).

Consider `CC(=C/[C@H](C)C/C=C/C(C)=C/[C@@H](C)C(=O)[C@@H](C)[C@H](O)[C@@H](C)C/C(C)=C/COC(=O)NCc1ccccn1)/C=C/[C@H]1CC=CC(=O)O1` [Compound A-16], for which the IC50 in the assay with HCT-116 (Homo sapiens, HCT-116, 1 h) was found to be 2.9 nM; in the assay on SiHa (Homo sapiens, SiHa, 1 h), 3.8 nM.

Consider `CC(=C/[C@H](C)C/C=C/C(C)=C/[C@@H](C)C(=O)[C@@H](C)[C@H](O)[C@@H](C)C/C(C)=C/COC(=O)NC[C@@H](O)CO)/C=C/[C@H]1CC=CC(=O)O1` [Compound A-17], for which the IC50 with HCT-116 (Homo sapiens, HCT-116, 1 h) stood at 3.6 nM; with SiHa (Homo sapiens, SiHa, 1 h) it was 3.2 nM.

Take `CC(C=CC1CC=CC(=O)O1)=CC(C)CC=CC(C)=CC(C)C(=O)C(C)C(OC(N)=O)C(C)CC(C)=CCOC(=O)N(Cc1ccccc1)C(N)=O` (stereo not drawn) [Compound A-18]: the results for the 50% inhibitory concentration (IC50) with HCT-116 (exposure time to compound 1 h) and in the assay on SiHa (exposure time to compound 1 h) were 20.3 nM and 22.5 nM, respectively.

With `CC(=C/[C@H](C)C/C=C/C(C)=C/[C@@H](C)C(=O)[C@@H](C)[C@H](O)[C@@H](C)C/C(C)=C/COC(=O)NCc1nccs1)/C=C/[C@H]1CC=CC(=O)O1` [Compound A-19], the IC50 was determined as 4.4 nM in the assay with HCT-116 (Homo sapiens, HCT-116, 1 h) and 4.5 nM with SiHa (Homo sapiens, SiHa, 1 h).

Regarding `CC(C=CC1CC=CC(=O)O1)=CC(C)CC=CC(C)=CC(C)C(=O)C(C)C(OC(N)=O)C(C)CC(C)=CCOC(=O)NCc1nccs1` (stereo not drawn) [Compound A-20], the IC50 in the assay on HCT-116 (exposure time to compound 1 h) is 9.4 nM; with HCT-116 (exposure time to compound 72 h) it was 2.6 nM; in the assay with SiHa (exposure time to compound 1 h), 4.6 nM.

Take `CC(=C/[C@H](C)C/C=C/C(C)=C/[C@@H](C)C(=O)[C@@H](C)[C@H](O)[C@@H](C)C/C(C)=C/COC(=O)NCc1ccc(C(F)(F)F)cn1)/C=C/[C@H]1CC=CC(=O)O1` [Compound A-21]: the 50% inhibitory concentration (IC50) was found to be 20 nM in the assay with HCT-116 (Homo sapiens, HCT-116, 1 h); 3.1 nM with HCT-116 (Homo sapiens, HCT-116, 72 h); 11.5 nM in the assay with SiHa (Homo sapiens, SiHa, 1 h).

Regarding `CC(=C/[C@H](C)C/C=C/C(C)=C/[C@@H](C)C(=O)[C@@H](C)[C@H](O)[C@@H](C)C/C(C)=C/COC(=O)NCc1ccc(C(F)(F)F)nc1)/C=C/[C@H]1CC=CC(=O)O1` [Compound A-22], the IC50 with HCT-116 (Homo sapiens, HCT-116, 1 h) came to 18.1 nM.

For the compound `CC(=C/[C@H](C)C/C=C/C(C)=C/[C@@H](C)C(=O)[C@@H](C)[C@H](O)[C@@H](C)C/C(C)=C/COC(=O)NCc1cccc(C(F)(F)F)n1)/C=C/[C@H]1CC=CC(=O)O1` [Compound A-23], the IC50 in the assay on HCT-116 (Homo sapiens, HCT-116, 1 h) worked out at 21.5 nM.

In the case of `CC(=C/[C@H](C)C/C=C/C(C)=C/[C@@H](C)C(=O)[C@@H](C)[C@H](OC(N)=O)[C@@H](C)C/C(C)=C/CO)/C=C/[C@H]1CC=CC(=O)O1` [IV], the concentration for half-maximal inhibition (IC50) in the assay on HCT-116 (Homo sapiens, HCT-116, 1 h) stood at 8.1 nM; in the assay on SiHa (Homo sapiens, SiHa, 1 h), 3.3 nM.

As for `CC(/C=C/C[C@@H](C)/C=C(C)/C=C/[C@@H]1OC(=O)C=C[C@@H]1C)=C\[C@@H](C)C(=O)[C@@H](C)[C@H](O)[C@@H](C)C/C(C)=C/C(=O)O` [Leptomycin A, leptomycin A, reference compound], the “Nuclear Export Block” value in the assay on CRM1 substrate RanBP1 is listed as “Fast recovery”. In addition, the IC50 came to 19 nM in the assay with HCT-116 (exposure time to compound 1 h), 1.4 nM with HCT-116 (exposure time to compound 72 h) and 0.5 nM in the assay on SiHa (exposure time to compound 72 h).

Regarding leptolstatin [reference compound], the “Nuclear Export Block” value in the assay with CRM1 substrate RanBP1 was “Slow recovery”. The IC50 in the assay with HCT-116 (exposure time to compound 1 h) stood at 5.5 nM; in the assay with HCT-116 (exposure time to compound 72 h) it was 0.49 nM; with SiHa (exposure time to compound 1 h), 1.6 nM; with SiHa (exposure time to compound 72 h), 0.45 nM.
